Calls of active or inactive are those of the source. The rule behind the calls is not given here.
How the values were obtained:
4T1 [1] = test: Induction of LPO accumulation in mouse 4T1 cells at 2.5 uM incubated for 6 hrs in presence of Fer-1 by C11-BODIPY staining based confocal laser scanning microscopic analysis; format: functional, cell-based
4T1 [2] = test: Induction of LPO accumulation in mouse 4T1 cells assessed as increase in MDA level at 2.5 uM incubated for 6 hrs; format: functional, cell-based
4T1 [3] = test: Induction of intracellular ROS generation in mouse 4T1 cells at 2.5 uM incubated for 6 hrs in presence of Fer-1 by DCFH-DA staining based confocal laser scanning microscopic analysis; format: functional, cell-based
4T1 [4] = test: Induction of ferroptosis in mouse 4T1 cells assessed as increase in mitochondrial membrane density at 5 uM incubated for 6 hrs by TEM analysis; format: functional, cell-based
MCF7 = test: Cytotoxicity against human MCF7 cells assessed as reduction in cell viability incubated for 48 hrs by MTT assay; format: functional, cell-based; conditions: MCF7, 48 h
4T1 [5] = test: Antitumor activity against mouse 4T1 cells xenografted in iv dosed BALB/c mouse assessed as tumor growth inhibition administered every two days for total 5 times and monitered every two days by electronic caliper method; format: functional, organism-based; conditions: dose 15-30 mg/kg
4T1 [6] = test: Induction of ferroptosis in mouse 4T1 cells assessed as reduction in mitochondrial cristae at 5 uM incubated for 6 hrs by TEM analysis; format: functional, cell-based
HT-1080 [7] = test: Cytotoxicity against human HT-1080 cells assessed as reduction in cell viability incubated for 48 hrs by MTT assay; format: functional, cell-based; conditions: HT-1080, 48 h
4T1 [8] = test: Antitumor activity against mouse 4T1 cells xenografted in BALB/c mouse assessed as tumor growth inhibition at 15 mg/kg, iv administered every two days for total 5 times and monitered every two days by electronic caliper method; format: functional; conditions: 4T1, iv, 48 h, read-out: TGI
4T1 [9] = test: Induction of ferroptosis in mouse 4T1 cells assessed as reversal of cytotoxicity after 48 hrs in presence of NAC by MTT assay; format: functional, cell-based
4T1 [10] = test: Induction of intracellular ROS generation in mouse 4T1 cells at 2.5 uM incubated for 6 hrs by DCFH-DA staining based confocal laser scanning microscopic analysis; format: functional, cell-based
4T1 [11] = test: Induction of ferroptosis in mouse 4T1 cells assessed as ruptured mitochondria at 5 uM incubated for 6 hrs by TEM analysis; format: functional
[12] = Selectivity index, ratio of IC50 for cytotoxicity against human HT-1080 cells in presence of Fer-1 to IC50 for cytotoxicity against human HT-1080 cells; format: functional
4T1 [13] = test: Cytotoxicity against mouse 4T1 cells assessed as reduction in cell viability incubated for 48 hrs by MTT assay; format: functional, cell-based; conditions: 4T1, 48 h
[14] = Toxicity in BALB/C mouse xenografted with mouse 4T1 cells assessed as change in morphology of tissues and cells at 15 to 30 mg/kg, iv administered every two days for total 5 times and monitered every two days; format: organism-based; conditions: in vivo, dose 15-30 mg/kg
4T1 [15] = test: Induction of intracellular ROS generation in mouse 4T1 cells at 2.5 uM incubated for 6 hrs by DCFH-DA staining based flow cytometric analysis; format: functional, cell-based
[16] = Stability of compound in glutathione after 12 hrs by HPLC analysis; format: physicochemical
HT-1080 [17] = test: Cytotoxicity against human HT-1080 cells assessed as reduction in cell viability incubated for 48 hrs in presence of Fer-1 by MTT assay; format: functional, cell-based; conditions: HT-1080, 48 h
[18] = target: T1, Phospholipid hydroperoxide glutathione peroxidase GPX4 (Homo sapiens) (UniProt P36969); test: Inhibition of GPX4 in mouse 4T1 cells assessed as decrease in intracellular GPX4 activity at 5 uM after 6 hrs; format: cell-based
T1 sequence (whole entry): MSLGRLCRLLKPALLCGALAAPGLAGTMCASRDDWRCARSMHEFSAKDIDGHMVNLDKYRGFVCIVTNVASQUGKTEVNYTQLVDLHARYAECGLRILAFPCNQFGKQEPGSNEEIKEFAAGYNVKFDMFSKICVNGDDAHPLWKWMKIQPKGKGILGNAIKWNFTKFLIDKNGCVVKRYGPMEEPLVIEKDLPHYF

4T1 [19] = test: Effect on intracellular GSH level in mouse 4T1 cells assessed as reduction in GSH level; format: functional, cell-based
4T1 [20] = test: Induction of ferroptosis in mouse 4T1 cells assessed as reversal of cytotoxicity after 48 hrs in presence of glutathione by MTT assay; format: functional, cell-based
[21] = Toxicity in BALB/C mouse xenografted with mouse 4T1 cells assessed as change in body weight at 15 to 30 mg/kg, iv administered every two days for total 5 times and monitered every two days; format: organism-based; conditions: in vivo, dose 15-30 mg/kg
[22] = Toxicity in BALB/C mouse xenografted with mouse 4T1 cells assessed as change in biochemical indexes at 15 to 30 mg/kg, iv administered every two days for total 5 times and monitered every two days; format: organism-based; conditions: in vivo, dose 15-30 mg/kg
4T1 [23] = test: Induction of intracellular ROS generation in mouse 4T1 cells at 2.5 uM incubated for 6 hrs in presence of Fer-1 by DCFH-DA staining based flow cytometric analysis; format: functional, cell-based
4T1 [24] = test: Induction of LPO accumulation in mouse 4T1 cells at 2.5 uM incubated for 6 hrs by C11-BODIPY staining based confocal laser scanning microscopic analysis; format: functional, cell-based
4T1 [25] = test: Induction of LPO accumulation in mouse 4T1 cells at 2.5 uM incubated for 6 hrs in presence of Fer-1 by C11-BODIPY staining based flow cytometric analysis; format: functional, cell-based
4T1 [26] = test: Induction of LPO accumulation in mouse 4T1 cells at 2.5 uM incubated for 6 hrs by C11-BODIPY staining based flow cytometric analysis; format: functional, cell-based
4T1 [27] = test: Induction of ferroptosis in mouse 4T1 cells assessed as reduction in GSH levels at 5 uM; format: functional, cell-based
4T1 [28] = test: Antitumor activity against mouse 4T1 cells xenografted in BALB/c mouse assessed as tumor growth inhibition at 30 mg/kg, iv administered every two days for total 5 times and monitered every two days by electronic caliper method; format: functional; conditions: 4T1, iv, 48 h, read-out: TGI

O=C(NCCc1ccccc1)C(c1csc2ccccc12)N(C(=O)CCl)c1ccc(-c2cnco2)cc1 (centres undefined)
Activity (4T1 [1]): inactive | Activity (4T1 [2]): Active | Activity (4T1 [3]): inactive | Activity (4T1 [4]): Active | IC50 (MCF7): 6.9 µM | Activity (4T1 [5]): Dose-Dependent Effect | Activity (4T1 [6]): Active | IC50 (HT-1080 [7]): 0.15 µM | inhibition in vivo at 15 mg/kg (4T1 [8]): 33.2% | Activity (4T1 [9]): Active | Activity (4T1 [10]): Active | Activity (4T1 [11]): Active | Ratio IC50 [12]: 31.5 | IC50 (4T1 [13]): 0.78 µM | Activity [14]: Non-Toxic | Activity (4T1 [15]): Active | Stabilty [16]: Stable | IC50 (HT-1080 [17]): 4.73 µM | inhibition [18]: 11.8% | Activity (4T1 [19]): inactive | Activity (4T1 [20]): Active | Activity [21]: Non-Toxic | Activity [22]: Non-Toxic | Activity (4T1 [23]): inactive | Activity (4T1 [24]): Active | Activity (4T1 [25]): inactive | Activity (4T1 [26]): Active | Activity (4T1 [27]): Active | inhibition in vivo at 30 mg/kg (4T1 [28]): 55.1%
